Results from paper PMC4851326, “Pharmacologic Comparison of Clinical Neutral Endopeptidase Inhibitors in a Rat Model of Acute Secretory Diarrhea” (The Journal of Pharmacology and Experimental Therapeutics, 2016).

How the values were obtained:
intestinal motility = assay: Charcoal meal model of intestinal motility; assay type: in vivo, rat; conditions: 30 minutes before charcoal meal, distance traveled in 20 minutes
Experimental: Rats were fasted for 18 hours before the experiment, with free access to water. Animals were weighed, and vehicle or compounds were administered by oral gavage. […] After 30 minutes, each animal received standard charcoal meal (10% suspension of activated charcoal in 5% gum arabic) by oral gavage (5 ml/kg). Animals were given access to food within 1 minute and sacrificed 20 minutes after the charcoal meal. The intestines were carefully removed. Motility was calculated as the measured distance traveled by the charcoal as a percentage of total length from pyloric sphincter to ileocecal junction.

[1] = tested on: castor oil–induced diarrhea; assay: Castor oil–induced diarrhea model; assay type: in vivo, rat
Experimental: Experiments were performed with 6-to-7-week-old male Wistar rats obtained from Charles River Laboratories (Wilmington, MA). All animals were housed in Saint Louis University facilities under controlled conditions of temperature, humidity, and a 12-hour light/dark cycle. They were maintained on standard rodent chow with free access to water. Animal care and all procedures were performed in accordance with the National Institutes of Health Guide for the Care and Use of Laboratory Animals and approved by the university’s institutional animal care and use committee.
Animals were weighed and individually housed in metabolic cages containing white paper underneath to collect feces. Test compounds or vehicles were administered by oral gavage (5 ml/kg), and then at indicated times, 10 ml/kg body weight of 100% castor oil was administered by oral gavage to induce diarrhea. Animals had access to food within 5 minutes. Stool weight was recorded starting 15 minutes after castor oil administration and repeated every 15 minutes up to 4 hours. […] After 4 hours, animals were euthanized with CO2, and blood and tissues were collected for analyses.

NEP [2] = biological target: T1, NEP (Rattus norvegicus, UniProt P07861); assay: NEP enzyme activity in tissues after oral treatment; assay type: in vivo; conditions: normal rats; for Relative NEP inhibition, duodenum / Relative NEP inhibition, jejunum / Relative NEP inhibition, kidney / Relative NEP inhibition, lung: vs vehicle
T1 construct: NEP enzyme activity was measured in tissue homogenates; from tissue; host or cells: Wistar rat kidney, lung, duodenum, jejunum homogenates
T1 sequence (P07861 1-750): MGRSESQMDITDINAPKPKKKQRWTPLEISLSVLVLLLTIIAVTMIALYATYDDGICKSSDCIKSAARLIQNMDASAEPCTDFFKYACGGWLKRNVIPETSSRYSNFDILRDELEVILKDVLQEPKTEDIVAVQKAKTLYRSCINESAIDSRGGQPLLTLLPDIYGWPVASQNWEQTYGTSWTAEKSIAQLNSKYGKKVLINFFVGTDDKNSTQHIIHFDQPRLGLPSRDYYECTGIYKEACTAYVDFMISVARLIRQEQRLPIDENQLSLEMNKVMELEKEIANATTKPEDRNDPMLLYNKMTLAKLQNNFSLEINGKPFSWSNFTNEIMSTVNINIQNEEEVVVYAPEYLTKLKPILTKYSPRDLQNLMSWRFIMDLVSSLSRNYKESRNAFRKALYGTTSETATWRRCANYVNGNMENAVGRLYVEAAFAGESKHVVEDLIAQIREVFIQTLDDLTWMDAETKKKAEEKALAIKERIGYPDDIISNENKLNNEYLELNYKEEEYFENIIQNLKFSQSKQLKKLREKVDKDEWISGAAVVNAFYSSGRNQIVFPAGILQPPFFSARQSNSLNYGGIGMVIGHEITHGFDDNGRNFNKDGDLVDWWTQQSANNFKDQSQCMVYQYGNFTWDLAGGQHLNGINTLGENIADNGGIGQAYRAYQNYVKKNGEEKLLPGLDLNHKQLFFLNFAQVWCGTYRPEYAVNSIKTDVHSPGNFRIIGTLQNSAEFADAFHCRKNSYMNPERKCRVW
Experimental: Four or five 2-mm Zirconia beads (Biospec, Bartlesville, OK) were added to fresh weighed tissue specimens (50–250 mg). Assay buffer consisting of 50 mM Tris-HCl (pH 7.4), 200 mM NaCl, and 0.05% TritonX-100 was added (4 μl/mg), and the sample was homogenized for 1 minute using a bead beater (Biospec). Stored frozen homogenates were thawed at room temperature and centrifuged 10 minutes at 18,000g, and the protein concentration was determined for each supernatant. […] NEP substrate 2Abz-dArg-Gly-Leu-C2-Dnp (American Peptide, Sunnyvale, CA) was prepared at 1 mM in 20% acetonitrile/water and diluted to 100 μM in assay buffer, and 10 μl was dispensed to homogenate-containing wells. […] Kinetic data were plotted to determine the rate of product formation by linear regression with interpolation against a standard curve, and the rate was normalized to protein concentration.

NEP [3] = biological target: T2, NEP (Homo sapiens, UniProt P08473); assay: Purified peptidase assay, NEP; assay type: biochemical
T2 construct: purchased R&D Systems (Minneapolis, MN)
T2 sequence (P08473 whole entry): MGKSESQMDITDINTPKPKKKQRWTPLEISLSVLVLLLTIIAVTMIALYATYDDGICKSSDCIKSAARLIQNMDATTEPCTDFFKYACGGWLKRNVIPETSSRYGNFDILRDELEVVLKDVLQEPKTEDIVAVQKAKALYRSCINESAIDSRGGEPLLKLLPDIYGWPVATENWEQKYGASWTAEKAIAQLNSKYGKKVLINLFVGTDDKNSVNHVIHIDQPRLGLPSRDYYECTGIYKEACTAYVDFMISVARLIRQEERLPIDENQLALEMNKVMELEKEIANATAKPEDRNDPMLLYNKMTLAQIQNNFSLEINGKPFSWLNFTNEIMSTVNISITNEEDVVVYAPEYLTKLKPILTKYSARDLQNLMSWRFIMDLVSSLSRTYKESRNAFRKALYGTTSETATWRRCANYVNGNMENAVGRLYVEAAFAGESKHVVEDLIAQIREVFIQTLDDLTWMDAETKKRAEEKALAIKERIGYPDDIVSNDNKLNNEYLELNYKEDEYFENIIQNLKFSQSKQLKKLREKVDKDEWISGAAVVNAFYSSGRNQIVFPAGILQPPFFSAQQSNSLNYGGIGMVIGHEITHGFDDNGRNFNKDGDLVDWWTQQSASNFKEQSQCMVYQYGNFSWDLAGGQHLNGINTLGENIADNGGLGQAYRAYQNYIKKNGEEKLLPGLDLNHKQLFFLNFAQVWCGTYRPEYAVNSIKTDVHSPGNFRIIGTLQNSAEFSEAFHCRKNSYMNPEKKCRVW
Experimental: Purified recombinant human enzymes were purchased from R&D Systems (Minneapolis, MN). […] Each substrate was diluted to 100 μM in the assay buffer recommended for each enzyme by the supplier. […] To these, 5 μl of diluted enzyme was added, followed by 10 μl of the quenched peptide substrate. The plates were incubated at 37°C until at least 10% substrate turnover or 5 μM product had formed. Fluorescence was measured using a Tecan Safire II (Excitation 320 nm/Emission 420 nm). Each plate included a standard curve of reaction product and positive (no enzyme) and negative (dimethyl sulfoxide vehicle) controls. Dose-response data were plotted and inhibition values (IC50) determined by linear regression analysis using GraphPad Prism (GraphPad Software, La Jolla, CA).

[4] = 1 h after single oral dose (Race 100, Candox 150, Sac 100, UK 100 mg/kg)
[5] = 5 h after single oral dose (Race 100, Candox 150, Sac 100, UK 100 mg/kg)

SMILES: CCOC(=O)[C@H](C)C[C@@H](Cc1ccc(-c2ccccc2)cc1)NC(=O)CCC(=O)O [Sacubitril, 4-(((2S,4R)-1-([1,1′-biphenyl]-4-yl)-5-ethoxy-4-methyl-5-oxopentan-2-yl)amino)-4-oxobutanoic acid]
- Effect on intestinal transit (charcoal meal test) (intestinal motility; 30 mg/kg oral): no effect
- Effect on intestinal transit (charcoal meal test) (intestinal motility; 100 mg/kg oral): significant but very modest effect

SMILES: CC(=O)SCC(Cc1ccccc1)C(=O)NCC(=O)OCc1ccccc1 (centres unmarked) [Racecadotril]
- Effect on intestinal transit (charcoal meal test) (intestinal motility; oral, dose not given (Fig. 5)): no effect
- Stool output, 150 or 240 minutes predosing ([1]; 100 mg/kg oral 150 or 240 minutes before castor oil (Fig. 4B, 4C)): Neither drug was effective
- Incidence of diarrhea ([1]; dose-response study (Fig. 2A), 30 minutes before castor oil, sacubitril at highest tested dose, racecadotril 100 mg/kg): 100%
- Cumulative stool output over 4 hours ([1]; single oral dose 30 minutes before castor oil, fasted rats, vs vehicle (Fig. 1)): significantly reduced
- Stool output, dose-response studies ([1]; single oral treatment with varying doses (racecadotril 100 mg/kg) 30 minutes before castor oil (Fig. 2A, 2C)): significantly reduced stool output
- Relative NEP inhibition, duodenum (NEP [2]; [4]): 98%
- Relative NEP inhibition, jejunum (NEP [2]; [4]): 90%
- Relative NEP inhibition, kidney (NEP [2]; [4]): 56%
- Relative NEP inhibition, lung (NEP [2]; [4]): 75%
- NEP enzyme activity in duodenum and jejunum (NEP [2]; 1 hour after single oral 100 mg/kg dose (Fig. 3A, B)): barely detectable levels
- Relative NEP inhibition, duodenum (NEP [2]; [5]): 85%
- Relative NEP inhibition, jejunum (NEP [2]; [5]): 32%
- Relative NEP inhibition, kidney (NEP [2]; [5]): 39%
- Relative NEP inhibition, lung (NEP [2]; [5]): 59%
- NEP inhibition in lung and kidney tissue after 24 hours (NEP [2]; 24 hours after single oral 100 mg/kg dose (Fig. 3C, D)): returned to normal

SMILES: COCCOC[C@H](CC1(C(=O)N[C@H]2CC[C@@H](C(=O)O)CC2)CCCC1)C(=O)O [Candoxatrilat, candoxatrilat]
- IC50 (NEP [3]; recombinant purified human enzyme, for prodrugs the active form was tested): < 100 nM
- NEP selectivity over the other peptidases (NEP [3]; versus panel of ACE, ECE-1, ECE-2, IDE, APN, PSA): > 60 fold

SMILES: CN(C)C(=O)C(CCN1CCC(O)(c2ccc(Cl)cc2)CC1)(c1ccccc1)c1ccccc1 [loperamide]
- Effect on intestinal transit (charcoal meal test) (intestinal motility; oral, dose not given (Fig. 5)): greatly slowed transit
